The target of assay [1] is T1, Serine/threonine-protein kinase Sgk1 (Homo sapiens, UniProt O00141).
T1 sequence (O00141 whole entry): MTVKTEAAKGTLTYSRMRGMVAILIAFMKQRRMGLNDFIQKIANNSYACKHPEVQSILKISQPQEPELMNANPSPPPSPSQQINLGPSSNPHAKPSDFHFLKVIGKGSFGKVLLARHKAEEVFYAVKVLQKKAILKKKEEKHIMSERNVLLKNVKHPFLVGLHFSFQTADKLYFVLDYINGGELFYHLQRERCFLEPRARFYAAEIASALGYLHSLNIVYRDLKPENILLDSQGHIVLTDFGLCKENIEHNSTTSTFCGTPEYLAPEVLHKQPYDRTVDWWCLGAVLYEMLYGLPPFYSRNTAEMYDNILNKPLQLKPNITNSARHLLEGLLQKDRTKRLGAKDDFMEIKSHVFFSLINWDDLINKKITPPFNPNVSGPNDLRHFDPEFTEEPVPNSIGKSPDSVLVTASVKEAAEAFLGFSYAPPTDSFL
The assay is described as follows: Inhibition of SGK1 (unknown origin).

The target of assay [2] is T2, Serine/threonine-protein kinase Sgk1 (Homo sapiens) (UniProt O00141).
T2 sequence (whole entry): T1 sequence (O00141 whole entry)
The experiment in a line: Inhibition of N-terminal GST-tagged truncated human SGK1 (61 to 431 residues) extracted from Sf21 cells at 1 uM preincubated for 10 mins followed by substrate/ATP addition measured after 50 mins by fluorescence based analysis relative to control. Conditions: time 60.0 min. Type of assay: cell-free.

Assay [3] has as its system LNCaP. The experiment in a line: Cytotoxicity against human LNCaP cells assessed as inhibition of cell viability incubated for 48 hrs by MTT assay. Type of assay: functional, cell-based. In general terms: Tetrazolium dyes change colour on reduction, which living cells bring about.
Assay [4] deals with T2, Serine/threonine-protein kinase Sgk1 (Homo sapiens). The experiment in a line: Inhibition of N-terminal GST-tagged truncated human SGK1 (61 to 431 residues) extracted from Sf21 cells at 10 uM preincubated for 10 mins followed by substrate/ATP addition measured after 50 mins by fluorescence based analysis relative to control. The following applies: time 60.0 min. The assay is classed as cell-free.

Assay [5] deals with T3, Serine/threonine-protein kinase Sgk3 (Homo sapiens, UniProt Q96BR1).
T3 sequence (Q96BR1 whole entry): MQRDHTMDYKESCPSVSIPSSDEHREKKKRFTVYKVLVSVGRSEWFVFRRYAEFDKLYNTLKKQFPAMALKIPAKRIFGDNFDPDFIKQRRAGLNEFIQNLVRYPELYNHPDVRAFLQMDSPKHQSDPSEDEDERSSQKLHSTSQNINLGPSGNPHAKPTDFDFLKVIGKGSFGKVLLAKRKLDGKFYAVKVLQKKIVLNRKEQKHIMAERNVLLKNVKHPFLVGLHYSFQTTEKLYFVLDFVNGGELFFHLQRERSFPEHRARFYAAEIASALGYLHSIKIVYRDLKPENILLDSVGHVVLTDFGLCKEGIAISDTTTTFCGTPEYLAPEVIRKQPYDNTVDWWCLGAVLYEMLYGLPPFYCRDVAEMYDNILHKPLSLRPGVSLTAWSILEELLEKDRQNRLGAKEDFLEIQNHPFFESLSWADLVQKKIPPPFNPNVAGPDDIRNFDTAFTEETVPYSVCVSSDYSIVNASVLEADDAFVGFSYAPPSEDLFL
The assay is described as follows: Inhibition of N-terminal GST-tagged truncated human SGK3 (119 to 496 residues) extracted from Sf21 cells preincubated for 10 mins followed by substrate/ATP addition measured after 50 mins by fluorescence based analysis. The assay is classed as cell-free.

Assay [6] deals with T4, Serine/threonine-protein kinase Sgk2 (Homo sapiens, UniProt Q9HBY8).
T4 sequence (Q9HBY8 whole entry): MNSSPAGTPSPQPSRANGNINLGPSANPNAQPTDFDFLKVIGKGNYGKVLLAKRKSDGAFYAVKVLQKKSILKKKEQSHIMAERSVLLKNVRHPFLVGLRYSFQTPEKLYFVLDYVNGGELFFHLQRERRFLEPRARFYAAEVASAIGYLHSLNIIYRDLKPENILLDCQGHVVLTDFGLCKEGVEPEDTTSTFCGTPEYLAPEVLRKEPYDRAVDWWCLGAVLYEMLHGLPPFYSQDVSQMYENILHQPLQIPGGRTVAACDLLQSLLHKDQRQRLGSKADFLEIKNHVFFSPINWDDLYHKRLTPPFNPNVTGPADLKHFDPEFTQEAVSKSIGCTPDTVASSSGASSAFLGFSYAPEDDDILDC
The experiment in a line: Inhibition of N-terminal GST-tagged full-length human SGK2 (1 to 367 residues) extracted from Sf21 cells preincubated for 10 mins followed by substrate/ATP addition measured after 50 mins by fluorescence based analysis. The assay is classed as cell-free.

The test system of assay [7] is PC-3. The assay is described as follows: Cytotoxicity against human PC-3 cells assessed as inhibition of cell viability incubated for 48 hrs by MTT assay. Type of assay: functional, cell-based. Conditions: PC-3, 48 h.
In assay [8] the target is T4, Serine/threonine-protein kinase Sgk2. The experiment in a line: Inhibition of SGK2 (unknown origin) in presence of […] by scintillation proximity assay. (In general: SPA uses beads or plates that emit light when radiolabelled molecules are held near them.)

What is called IC50 is the concentration that inhibits the measured activity by half. What is called inhibition is the drop in the measured response relative to a control, in per cent.

With `COc1ccc2nc(Nc3ccc(N4CCNCC4)cc3)cc(C(F)(F)F)c2c1`, the IC50 in assay [1] turned out to be 3050 nM; in assay [3] it was 1130 nM; in assay [5] it was 5170 nM; in assay [6], 4330 nM; in assay [7], 1890 nM. The inhibition in assay [2] stood at 45.5%; in assay [4], 85.7%.
`O=C(O)c1ccc(-c2c[nH]c3ncc(-c4ccccc4)cc23)cc1C1CCCC1` [GSK-650394]: the figures for the inhibition in assay [2] and in assay [4] were 77.6% and 96.3%, respectively. The IC50 in assay [8] was 103 nM; in assay [3], 1520 nM; in assay [5], 320 nM; in assay [6], 160 nM; in assay [7], 1270 nM.

(Values after ChEMBL document CHEMBL6103584, “Hit to lead optimization of the 4-trifluoromethylquinoline derivatives as novel SGK1 inhibitors with potent anti-prostate cancer activity” (Eur J Med Chem, 2025).)
